The assay has as its target RBM39 and the DCAF15 complex (RBM39-Flag / His-DCAF15-DDA1-DDB1) (Homo sapiens (Human), UniProt Q14498+Q66K64). In words: DCAF15 RBM39 complex formation TR-FRET assay. The assay is classed as binding. Particulars: RBM39(R150-D331) 3xFlag 50 nM, His-DCAF15-DDA1-DDB1 10 nM, 60 min room temperature. Here is the method:
A TR-FRET assay was used to assess the effect of compounds disclosed herein on the interaction between RBM39 and the DCAF15 complex. Test compounds were dissolved to form a 10 mM DMSO stock solution. A 45 μL aliquot of the stock solution was transferred to a 384 pp-plate, and a threefold, 8-point dilution was performed via transferring 15 μL compound solution into 30 μL of DMSO. The plates were then spun at room temperature at 1,000 RPM for 1 minute.
A 30 nL aliquot of the diluted compound was transferred to a 384 well plate, which was incubated at room temperature for 15 minutes. Next, Solutions 1, 2, and 3 were prepared as described in the below tables. A 5 μL aliquot of Solution 2 was added to each well, followed by 5 μL of Solution 3 to start the reaction. The final volume of each well was 10 μL. The plates were incubated at room temperature for 60 minutes, and then read.
Next, an RBM39 (R150-D331) 3× Flag used in TR-FRET assay was prepared:
Recombinant RBM39 protein is composed of the R1R2 of RBM39 (aa 150 to 331; UniProt: Q14498). The coding sequence was sub-cloned into pGEX4T-1-RBM39-flag vector, expressed as a GST-fusion protein with N-terminal TEV protease cleavage site. A 3× Flag tag was added to the C-terminal of R1R2 used in a FRET assay.
`Cc1ccc(NS(=O)(=O)c2nccs2)c2[nH]cc(C#N)c12` [Compound 2] yielded a concentration giving a half-maximal response (EC50) of 1030 nM.

Molecule `Cc1ccc(NS(=O)(=O)c2ncc(Cl)s2)c2[nH]cc(C#N)c12` [Compound 3] came in with a 50% effective concentration (EC50) of 429 nM.

`Cc1ccc(NS(=O)(=O)c2cnc(Cl)s2)c2[nH]cc(C#N)c12` [Compound 7]: the EC50 came out at 106 nM.

On to `CCc1nc(S(=O)(=O)Nc2ccc(C)c3c(C#N)c[nH]c23)c[nH]1` [Compound 8, N-(3-cyano-4-methyl-1H-indol-7-yl)-2-ethyl-1H-imidazole-4-sulfonamide], for which a half-maximal effect (EC50) was put at 787 nM.

Molecule `Cc1cnc(S(=O)(=O)Nc2ccc(C)c3c(C#N)c[nH]c23)s1` [Compound 9] displayed an EC50 of 436 nM.

`Cc1sc(S(=O)(=O)Nc2ccc(C)c3c(C#N)c[nH]c23)nc1C#N` [Compound 10] displayed an EC50 of 75.7 nM.

As for `Cc1sc(S(=O)(=O)Nc2ccc(C)c3c(C#N)c[nH]c23)nc1Br` [Compound 11], the concentration giving a half-maximal response (EC50) turned out to be 108 nM.

In turn, `Cc1ccc(NS(=O)(=O)c2nc(C(F)(F)F)cs2)c2[nH]cc(C#N)c12` [Compound 12, N-(3-cyano-4-methyl-1H-indol-7-yl)-4-(trifluoromethyl)-1,3-thiazole-2-sulfonamide] yielded a half-maximal effective concentration (EC50) of 384 nM.

In turn, `Cc1ccc(NS(=O)(=O)c2nc(Br)cs2)c2[nH]cc(C#N)c12` [Compound 13] came in with an EC50 of 298 nM.

The molecule `Cc1ccc(NS(=O)(=O)c2cnc(C(F)(F)F)s2)c2[nH]cc(C#N)c12` [Compound 24] returned an EC50 of 269 nM.

Molecule `N#Cc1c[nH]c2c(NS(=O)(=O)c3nccs3)cccc12` [Compound 27] displayed an EC50 of 2800 nM.

The molecule `Cc1ccc(NS(=O)(=O)c2ncc(-c3cccnc3)s2)c2[nH]cc(C#N)c12` [Compound 32] had an EC50 of 136 nM.

Turning to `N#Cc1c[nH]c2c(NS(=O)(=O)c3cnc(C(F)(F)F)s3)cccc12` [Compound 34], the EC50 is 301 nM.

For the molecule `Cc1ccc(NS(=O)(=O)c2ncc(-c3ccncc3)s2)c2[nH]cc(C#N)c12` [Compound 36], the EC50 came to 354 nM.

On to `Cc1ccc(NS(=O)(=O)c2ncc(-c3ccccn3)s2)c2[nH]cc(C#N)c12` [Compound 37], for which the EC50 was determined as 427 nM.

In turn, `CCc1nc(S(=O)(=O)Nc2cccc3c(C#N)c[nH]c23)c[nH]1` [Compound 38] came in with an EC50 of 4190 nM.

The molecule `Cc1ccc(NS(=O)(=O)c2c[nH]c(C(C)C)n2)c2[nH]cc(C#N)c12` [Compound 39] displayed an EC50 of 520 nM.

For `Cc1ccc(NS(=O)(=O)c2cnc(Br)s2)c2[nH]cc(C#N)c12` [Compound 40], the EC50 is 275 nM.

In the case of `Cc1ccc(NS(=O)(=O)c2nc(CCO)cs2)c2[nH]cc(C#N)c12` [Compound 41], the EC50 is 363 nM.

`Cc1ccc(NS(=O)(=O)c2cncs2)c2[nH]cc(C#N)c12` [Compound 42] gave an EC50 of 55.2 nM.

Molecule `Cc1noc(C)c1S(=O)(=O)Nc1ccc(C)c2c(C#N)c[nH]c12` [Compound 43] showed an EC50 of more than 30000 nM.

Consider `Cc1ccc(NS(=O)(=O)c2ncc(CCO)s2)c2[nH]cc(C#N)c12` [Compound 44], for which the EC50 worked out at 904 nM.

`Cc1ccc(NS(=O)(=O)c2ncc(-c3ccncn3)s2)c2[nH]cc(C#N)c12` [Compound 45]: the midpoint of the response, the EC50, lay at 394 nM.

In turn, `Cc1ccc(NS(=O)(=O)c2csc(C(F)(F)F)n2)c2[nH]cc(C#N)c12` [Compound 47] registered an EC50 of 97 nM.

Turning to `Cc1ncc(S(=O)(=O)Nc2ccc(C)c3c(C#N)c[nH]c23)s1` [Compound 48], the response was half-maximal at 125 nM (EC50).

Turning to `N#Cc1c[nH]c2c(NS(=O)(=O)c3csc(C(F)(F)F)n3)cccc12` [Compound 49], a half-maximal effect (EC50) was put at 190 nM.

The molecule `N#Cc1c[nH]c2c(NS(=O)(=O)c3cncs3)cccc12` [Compound 50, N-(3-cyano-1H-indol-7-yl)thiazole-5-sulfonamide] yielded an EC50 of 966 nM.

The molecule `Cc1ncc(S(=O)(=O)Nc2cccc3c(C#N)c[nH]c23)s1` [Compound 51] came in with a concentration giving a half-maximal response (EC50) of 164 nM.

In the case of `Cc1sc(S(=O)(=O)Nc2cccc3c(C#N)c[nH]c23)nc1Br` [Compound 55], a half-maximal effect (EC50) was put at 302 nM.

The molecule `Cc1ccc(NS(=O)(=O)c2nc(C(=O)O)cs2)c2[nH]cc(C#N)c12` [Compound 57] returned an EC50 of more than 30000 nM.

`CNC(=O)c1csc(S(=O)(=O)Nc2ccc(C)c3c(C#N)c[nH]c23)n1` [Compound 58] came in with an EC50 of 1080 nM.

`Cc1ccc(NS(=O)(=O)c2nc(C(=O)N(C)C)cs2)c2[nH]cc(C#N)c12` [Compound 59] came in with a concentration giving a half-maximal response (EC50) of 802 nM.

Consider `Cc1ccc(NS(=O)(=O)c2nc(C(=O)N3CCCC3)cs2)c2[nH]cc(C#N)c12` [Compound 60], for which the midpoint of the response, the EC50, lay at 1360 nM.

Take `Cc1ccc(NS(=O)(=O)c2nc(C(=O)N3CCOCC3)cs2)c2[nH]cc(C#N)c12` [Compound 61]: the EC50 amounted to 1790 nM.

For `Cc1ccc(NS(=O)(=O)c2cscn2)c2[nH]cc(C#N)c12` [Compound 63], it took 1170 nM to reach a half-maximal effect (EC50).

For `N#Cc1c[nH]c2c(NS(=O)(=O)c3cscn3)cccc12` [Compound 64], the concentration for a half-maximal effect (EC50) is 3440 nM.

Consider `N#Cc1c[nH]c2c(NS(=O)(=O)c3nc(Br)cs3)cccc12` [Compound 65], for which it took 1080 nM to reach a half-maximal effect (EC50).

Regarding `Cc1ccc(NS(=O)(=O)c2ncc(-c3cncnc3)s2)c2[nH]cc(C#N)c12` [Compound 67], the EC50 was 520 nM.

Molecule `Cc1ccc(NS(=O)(=O)c2ncc(-c3ccnnc3)s2)c2[nH]cc(C#N)c12` [Compound 68] yielded an EC50 of 708 nM.

In turn, `Cc1ccc(NS(=O)(=O)c2ncc(-c3cc[nH]n3)s2)c2[nH]cc(C#N)c12` [Compound 69] had an EC50 of 421 nM.

Turning to `Cc1ccc(NS(=O)(=O)c2ncc(-c3cn[nH]c3)s2)c2[nH]cc(C#N)c12` [Compound 70], the response was half-maximal at 338 nM (EC50).

In turn, `Cc1ccc(NS(=O)(=O)c2ncc(-c3cocn3)s2)c2[nH]cc(C#N)c12` [Compound 71] displayed an EC50 of 532 nM.

`Cc1ccc(NS(=O)(=O)c2nc(C(N)=O)cs2)c2[nH]cc(C#N)c12` [Compound 72] showed an EC50 of 432 nM.

In the case of `CCN(CC)C(=O)c1csc(S(=O)(=O)Nc2ccc(C)c3c(C#N)c[nH]c23)n1` [Compound 73], the EC50 was found to be 738 nM.

Consider `Cc1ccc(NS(=O)(=O)c2nc(C(=O)NCCO)cs2)c2[nH]cc(C#N)c12` [Compound 74], for which a half-maximal response (EC50) required 1450 nM.

On to `COCCNC(=O)c1csc(S(=O)(=O)Nc2ccc(C)c3c(C#N)c[nH]c23)n1` [Compound 75], for which the EC50 worked out at 2180 nM.

`Cc1ccc(NS(=O)(=O)c2nc(C(=O)N3CCC(O)C3)cs2)c2[nH]cc(C#N)c12` (centres unmarked) [Compound 76] displayed a half-maximal effective concentration (EC50) of 3320 nM.

As to `Cc1ccc(NS(=O)(=O)c2nc(C(=O)N3CCCCC3)cs2)c2[nH]cc(C#N)c12` [Compound 77], the response was half-maximal at 828 nM (EC50).

Molecule `Cc1ccc(NS(=O)(=O)c2nc(C(=O)N3CCNCC3)cs2)c2[nH]cc(C#N)c12` [Compound 78] showed an EC50 of 3250 nM.

Molecule `Cc1ccc(NS(=O)(=O)c2nc(C(=O)N3CCN(C)CC3)cs2)c2[nH]cc(C#N)c12` [Compound 79] gave an EC50 of 9710 nM.

Consider `Cc1ccc(NS(=O)(=O)c2cc(C3CC3)no2)c2[nH]cc(C#N)c12` [Compound 81], for which the response was half-maximal at 55.6 nM (EC50).

Molecule `Cc1nc(S(=O)(=O)Nc2ccc(C)c3c(C#N)c[nH]c23)c(C)s1` [Compound 82] had an EC50 of 1440 nM.

Turning to `Cc1ccc(NS(=O)(=O)c2onc(C3CC3)c2Cl)c2[nH]cc(C#N)c12` [Compound 83], the EC50 came out at 105 nM.

As for `COc1ncc(S(=O)(=O)Nc2ccc(C)c3c(C#N)c[nH]c23)s1` [Compound 84], the EC50 amounted to 175 nM.

Molecule `CCc1ncc(S(=O)(=O)Nc2ccc(C)c3c(C#N)c[nH]c23)s1` [Compound 85] showed an EC50 of 95.9 nM.

Take `Cc1nocc1S(=O)(=O)Nc1ccc(C)c2c(C#N)c[nH]c12` [Compound 86]: the EC50 was determined as 2070 nM.

With `N#Cc1c[nH]c2c(NS(=O)(=O)c3cc(C4CC4)no3)cccc12` [Compound 87], the response was half-maximal at 277 nM (EC50).

Molecule `N#Cc1c[nH]c2c(NS(=O)(=O)c3onc(C4CC4)c3Cl)cccc12` [Compound 89] gave a concentration for a half-maximal effect (EC50) of 174 nM.

The molecule `COc1ncc(S(=O)(=O)Nc2cccc3c(C#N)c[nH]c23)s1` [Compound 90] had an EC50 of 389 nM.

Consider `CCc1ncc(S(=O)(=O)Nc2cccc3c(C#N)c[nH]c23)s1` [Compound 91], for which the EC50 was determined as 76.6 nM.

For `Cc1scnc1S(=O)(=O)Nc1ccc(C)c2c(C#N)c[nH]c12` [Compound 93], the midpoint of the response, the EC50, lay at 1520 nM.

Consider `Cc1ccc(NS(=O)(=O)c2cc(C(C)(C)C)no2)c2[nH]cc(C#N)c12` [Compound 94], for which a half-maximal effect (EC50) was put at 45.2 nM.

Molecule `Cc1ccc(NS(=O)(=O)c2csc(C(F)F)n2)c2[nH]cc(C#N)c12` [Compound 95] returned an EC50 of 104 nM.

`Cc1ccc(NS(=O)(=O)c2cnc(C3CC3)o2)c2[nH]cc(C#N)c12` [Compound 97] showed a concentration for a half-maximal effect (EC50) of 105 nM.

With `Cc1ncc(S(=O)(=O)Nc2ccc(C)c3c(C#N)c[nH]c23)o1` [Compound 98], the EC50 amounted to 196 nM.

`Cc1nc(Br)sc1S(=O)(=O)Nc1ccc(C)c2c(C#N)c[nH]c12` [Compound 99] showed an EC50 of 518 nM.

The molecule `Cc1ccc(NS(=O)(=O)c2cnc(C(C)(C)C)o2)c2[nH]cc(C#N)c12` [Compound 100] displayed an EC50 of 364 nM.

Take `O=S(=O)(Nc1cccc2cn[nH]c12)c1nccs1` [Compound 102]: the EC50 is more than 30000 nM.
